Results: patent publication US10022376B2 (Pfizer Inc., priority 2014, dated 2018)

system: rhIFNγ stimulated STAT-3 phosphorylation in the A549 human epithelial cell line; assay: A549 Cell Assay: Inhibition of pSTAT3; type: cell-based; conditions: Homo sapiens; A549 cells
Procedure: A549 Cell Assay: Inhibition of pSTAT3
An assay measuring the efficacy of JAK inhibitors on the functional response of recombinant human interferon γ (rhIFNγ) stimulated STAT-3 phosphorylation in the A549 human epithelial cell line.
A549 cells (ATCC #CCL-185), were plated at 30,000 cells/well in 96 well flat bottomed tissue culture plates (BD#353072) in 200 μL of growth medium (DMEM, Pfizer media prep, with 10% Fetal Bovine Serum, Sigma #F4135, 2 mM L-Glutamine, Pfizer media prep, 100 U/mL penicillin, Pfizer media prep, and 200 μg/ml streptomycin, Pfizer media prep), and cultured at 37° C., 5% CO2 incubator for 18 hours. Growth medium was removed by vacuum aspiration (V&P Scientific #vp187 bp-60), and 90 μL of pre-warmed assay medium (DMEM with 0.2% BSA, Miltenyi #130-091-376) was added to each well and incubated for 15 minutes at 37° C. 10 μL of vehicle control or test compound (final concentration range of 0.3 nM to 10 μM with 0.1% DMSO) was added to the cells. Plates were incubated at 37° C. for 1 hour. After compound incubation, 10 μL of 220 ng/mL recombinant human IFNγ (R&D Systems #285-IF, final rhIFNγ concentration of 20 ng/mL) was added to the cells and plates were incubated for 30 minutes at 37° C. Wells containing A549 cells, medium with 0.1% DMSO and no rhIFNγ were used as background controls. After rhIFNγ stimulation, media was aspirated from each well and 35 μL/well of iced-cold MSD lysis buffer containing protease and phosphatase inhibitors from Phospho-STAT3 Tyr705 assay kit (Meso-Scale Discovery #K150DID) was added to each well. Plates were incubated at 4° C. with shaking for 30 minutes. Cell lysates were assayed following the MSD Phospho-STAT3 Tyr705 assay kit protocol to detect pSTAT3.
Data were collected and transformed into percent inhibition and calculated using the following formula: […]

First: CNC(=O)c1n[nH]c2cc(-c3cc(F)c(O)cc3CC(F)(F)F)nc(NCc3nccnc3N(C)S(=O)(=O)c3ccccc3)c12 [Example 44, 6-[5-fluoro-4-hydroxy-2-(2,2,2-trifluoroethyl)phenyl]-N-methyl-4-[({3-[methyl(phenylsulfonyl)amino]pyrazin-2-yl}methyl)amino]-1H-pyrazolo[4,3-c]pyridine-3-carboxamide]
Second: CNC(=O)c1n[nH]c2cc(-c3cc(F)c(O)cc3CC(F)(F)F)nc(NCc3nccnc3N(C)S(C)(=O)=O)c12 [Example 51, 6-[5-fluoro-4-hydroxy-2-(2,2,2-trifluoroethyl)phenyl]-N-methyl-4-[({3-[methyl(methylsulfonyl)amino]pyrazin-2-yl}methyl)amino]-1H-pyrazolo[4,3-c]pyridine-3-carboxamide]
The IC50 of the first is 3-fold lower: 59.7 nM for the first, 182 nM for the second. The first is the more potent here.

First: CCN(c1nccnc1CNc1nc(-c2cc(F)c(O)cc2CC(F)(F)F)cc2[nH]nc(C(=O)NC)c12)S(C)(=O)=O [Example 45, 4-[({3-[ethyl(methylsulfonyl)amino]pyrazin-2-yl}methyl)amino]-6-[5-fluoro-4-hydroxy-2-(2,2,2-trifluoroethyl)phenyl]-N-methyl-1H-pyrazolo[4,3-c]pyridine-3-carboxamide]
Second: CCN(c1ncccc1CNc1nc(-c2cc(F)c(O)cc2CC(F)(F)F)cc2[nH]nc(C(=O)NC)c12)S(C)(=O)=O [Example 63, 4-[({2-[ethyl(methylsulfonyl)amino]pyridin-3-yl}methyl)amino]-6-[5-fluoro-4-hydroxy-2-(2,2,2-trifluoroethyl)phenyl]-N-methyl-1H-pyrazolo[4,3-c]pyridine-3-carboxamide]
The IC50 of the first is 3.2-fold higher: 46.5 nM for the first, 14.6 nM for the second.

`CN(c1ccccc1CNc1nc(-c2cc(F)c(O)cc2C2CC2)cc2[nH]nc(C(N)=O)c12)S(C)(=O)=O` [Example 47, 6-(2-cyclopropyl-5-fluoro-4-hydroxyphenyl)-4-({2-[methyl(methylsulfonyl)amino]benzyl}amino)-1H-pyrazolo[4,3-c]pyridine-3-carboxamide] and `CNC(=O)c1n[nH]c2cc(-c3cc(F)c(O)cc3C3CC3)nc(NCc3cccnc3N(C)S(C)(=O)=O)c12` [Example 49, 6-(2-cyclopropyl-5-fluoro-4-hydroxyphenyl)-N-methyl-4-[({2-[methyl(methylsulfonyl)amino]pyridin-3-yl}methyl)amino]-1H-pyrazolo[4,3-c]pyridine-3-carboxamide] are within 1.5-fold of each other in IC50: 282 nM for the first, 385 nM for the second.

Compared with `CNC(=O)c1n[nH]c2cc(-c3cc(F)c(O)cc3CC(F)(F)F)nc(NCc3cnccc3N(C)S(C)(=O)=O)c12` [Example 48, 6-[5-fluoro-4-hydroxy-2-(2,2,2-trifluoroethyl)phenyl]-N-methyl-4-[({4-[methyl(methylsulfonyl)amino]pyridin-3-yl}methyl)amino]-1H-pyrazolo[4,3-c]pyridine-3-carboxamide], `CNC(=O)c1n[nH]c2cc(-c3cc(F)c(O)cc3CC(F)(F)F)nc(NCc3cccnc3N(C)S(C)(=O)=O)c12` [Example 53, 6-[5-fluoro-4-hydroxy-2-(2,2,2-trifluoroethyl)phenyl]-N-methyl-4-[({2-[methyl(methylsulfonyl)amino]pyridin-3-yl}methyl)amino]-1H-pyrazolo[4,3-c]pyridine-3-carboxamide] is lower in IC50: > 10000 nM for the first, 21.3 nM for the second.

`CCN(c1ncccc1CNc1nc(-c2cc(F)c(O)cc2CC(F)(F)F)cc2[nH]nc(C(N)=O)c12)S(C)(=O)=O` [Example 52, 4-[({2-[ethyl(methylsulfonyl)amino]pyridin-3-yl}methyl)amino]-6-[5-fluoro-4-hydroxy-2-(2,2,2-trifluoroethyl)phenyl]-1H-pyrazolo[4,3-c]pyridine-3-carboxamide] and `CN(c1ncccc1CNc1nc(-c2cc(F)c(O)cc2CC(F)(F)F)cc2[nH]nc(C(N)=O)c12)S(C)(=O)=O` [Example 62, 6-[5-fluoro-4-hydroxy-2-(2,2,2-trifluoroethyl)phenyl]-4-[({2-[methyl(methylsulfonyl)amino]pyridin-3-yl}methyl)amino]-1H-pyrazolo[4,3-c]pyridine-3-carboxamide] are within 1.5-fold of each other in IC50: 74.3 nM for the first, 71.8 nM for the second.

First: CNC(=O)c1n[nH]c2cc(-c3cc(F)c(O)cc3CC(F)(F)F)nc(NCc3ncccc3N(C)S(C)(=O)=O)c12 [Example 55, 6-[5-Fluoro-4-hydroxy-2-(2,2,2-trifluoroethyl)phenyl]-N-methyl-4-[({3-[methyl(methylsulfonyl)amino]pyridin-2-yl}methyl)amino]-1H-pyrazolo[4,3-c]pyridine-3-carboxamide]
Second: CNC(=O)c1n[nH]c2cc(-c3cc(F)c(O)cc3CC(F)(F)F)nc(NCc3cc(C)cnc3N(C)S(C)(=O)=O)c12 [Example 67, 6-[5-fluoro-4-hydroxy-2-(2,2,2-trifluoroethyl)phenyl]-N-methyl-4-[({5-methyl-2-[methyl(methylsulfonyl)amino]pyridin-3-yl}methyl)amino]-1H-pyrazolo[4,3-c]pyridine-3-carboxamide]
The IC50 of the first is 1.5-fold higher: 156 nM for the first, 104 nM for the second. The second is the more potent here.

First: CNC(=O)c1n[nH]c2cc(-c3cc(F)c(O)cc3CC(F)(F)F)nc(NCc3ccccc3N(C)S(=O)(=O)c3cn[nH]c3)c12 [Example 58, 6-(5-fluoro-4-hydroxy-2-(2,2,2-trifluoroethyl)phenyl)-N-methyl-4-((2-(N-methyl-1H-pyrazole-4-sulfonamido)benzyl)amino)-1H-pyrazolo[4,3-c]pyridine-3-carboxamide]
Second: CNC(=O)c1n[nH]c2cc(-c3cc(F)c(O)cc3CC(F)(F)F)nc(NCc3ccccc3N(C)S(=O)(=O)c3cccnc3)c12 [Example 68, 6-[5-fluoro-4-hydroxy-2-(2,2,2-trifluoroethyl)phenyl]-N-methyl-4-({2-[methyl(pyridin-3-ylsulfonyl)amino]benzyl}amino)-1H-pyrazolo[4,3-c]pyridine-3-carboxamide]
The IC50 of the first is 4-fold higher: 174 nM for the first, 43.9 nM for the second.

First: CNC(=O)c1n[nH]c2cc(-c3cc(F)c(O)cc3CC(F)(F)F)nc(NCc3ccccc3N(C)S(=O)(=O)CCOC)c12 [Example 60, 6-[5-fluoro-4-hydroxy-2-(2,2,2-trifluoroethyl)phenyl]-4-[(2-{[(2-methoxyethyl)sulfonyl](methyl)amino}benzyl)amino]-N-methyl-1H-pyrazolo[4,3-c]pyridine-3-carboxamide]
Second: CNC(=O)c1n[nH]c2cc(-c3cc(F)c(O)cc3CC(F)(F)F)nc(NCc3ccccc3CS(N)(=O)=O)c12 [Example 64, 6-[5-fluoro-4-hydroxy-2-(2,2,2-trifluoroethyl)phenyl]-N-methyl-4-{[2-(sulfamoylmethyl)benzyl]amino}-1H-pyrazolo[4,3-c]pyridine-3-carboxamide]
The IC50 of the first is 6.2-fold lower: 34.4 nM for the first, 213 nM for the second.

Going from `CN(c1ccccc1CNc1nc(-c2cc(F)c(O)cc2CC(F)(F)F)cc2[nH]nc(C(N)=O)c12)S(=O)(=O)c1cccnc1` [Example 61, 6-[5-fluoro-4-hydroxy-2-(2,2,2-trifluoroethyl)phenyl]-4-({2-[methyl(pyridin-3-ylsulfonyl)amino]benzyl}amino)-1H-pyrazolo[4,3-c]pyridine-3-carboxamide] to `Cc1ccc(S(=O)(=O)N(C)c2ccccc2CNc2nc(-c3cc(F)c(O)cc3CC(F)(F)F)cc3[nH]nc(C(N)=O)c23)cn1` [Example 70, 6-[5-fluoro-4-hydroxy-2-(2,2,2-trifluoroethyl)phenyl]-4-[(2-{methyl[(6-methylpyridin-3-yl)sulfonyl]amino}benzyl)amino]-1H-pyrazolo[4,3-c]pyridine-3-carboxamide], the IC50 falls from 71.2 nM to 46.2 nM (1.5-fold).

Compared with `CN(c1ccccc1CNc1nc(-c2cc(F)c(O)cc2CC(F)(F)F)cc2[nH]nc(C(N)=O)c12)S(=O)(=O)c1ccc(N2CCOCC2)nc1` [Example 65, 6-[5-fluoro-4-hydroxy-2-(2,2,2-trifluoroethyl)phenyl]-4-{[2-(methyl{[6-(morpholin-4-yl)pyridin-3-yl]sulfonyl}amino)benzyl]amino}-1H-pyrazolo[4,3-c]pyridine-3-carboxamide], `CNC(=O)c1n[nH]c2cc(-c3cc(F)c(O)cc3CC(F)(F)F)nc(NCc3ccccc3N(C)S(=O)(=O)c3ccc(C)nc3)c12` [Example 69, 6-[5-fluoro-4-hydroxy-2-(2,2,2-trifluoroethyl)phenyl]-N-methyl-4-[(2-{methyl[(6-methylpyridin-3-yl)sulfonyl]amino}benzyl)amino]-1H-pyrazolo[4,3-c]pyridine-3-carboxamide] is 1.8-fold lower in IC50: 161 nM for the first, 91.6 nM for the second.

First: CN(c1ccccc1CNc1nc(-c2cc(F)c(O)cc2CC(F)(F)F)cc2[nH]nc(C(N)=O)c12)S(=O)(=O)CCCN1CCOCC1 [Example 66, 6-[5-fluoro-4-hydroxy-2-(2,2,2-trifluoroethyl)phenyl]-4-{[2-(methyl{[3-(morpholin-4-yl)propyl]sulfonyl}amino)benzyl]amino}-1H-pyrazolo[4,3-c]pyridine-3-carboxamide]
Second: CCN(c1ncc(Cl)cc1CNc1nc(-c2cc(F)c(O)cc2CC(F)(F)F)cc2[nH]nc(C(N)=O)c12)S(C)(=O)=O [Example 71, 4-[({5-chloro-2-[ethyl(methylsulfonyl)amino]pyridin-3-yl}methyl)amino]-6-[5-fluoro-4-hydroxy-2-(2,2,2-trifluoroethyl)phenyl]-1H-pyrazolo[4,3-c]pyridine-3-carboxamide]
The IC50 of the first is 2-fold higher: 221 nM for the first, 110 nM for the second.
